Read-outs that look alike come from different tables or passages of the source.
Experiments:
[1] = solubility compared to carvedilol base
[2] = stability compared to carvedilol base; assay type: physicochemical; details: color of final product, phosphate sesquihydrate
[3] = compared to the free base of carvedilol; disclosed in WO 2004/002419; cited from earlier work

Compound	solubility [1]	stability [2]	solubility [3]
COc1ccccc1OCCNCC(O)COc1cccc2[nH]c3ccccc3c12.O=P(O)(O)O (stereo not drawn) [carvedilol dihydrogen phosphate sesquihydrate]	Better solubility as compared to carvedilol base	More stable as compared to carvedilol base	
COc1ccccc1OCCNCC(O)COc1cccc2[nH]c3ccccc3c12.O=P(O)(O)O (stereo not drawn) [carvedilol dihydrogen phosphate, Carvedilol dihydrogen phosphate]			higher solubility when compared to the free base of carvedilol
